The values that follow come from publication PMC10526672, “A genome-wide CRISPR/Cas9 screen identifies DNA-PK as a sensitiser to ^177Lutetium-DOTA-octreotate radionuclide therapy” (Theranostics, 2023).

Data set [1] has as its system H1299-7 cells. Put plainly: Cell growth assay over 14 days, LuTate alone or with DNA-PK inhibitor. Format: cell-based, human. Particulars: parental H1299-7 cells, 20 MBq/mL LuTate.
From the text: Total Cells = Cell Number counted (1 well) × Number of Wells required
Number of Wells required going forward = Total Cells/0.2 × 10^6
Cell growth was normalised to the appropriate control for each experiment. […] All assays were repeated as at least biological triplicates.
For a further data set, the system named is H1299-7 Artemis KO cells. Put plainly: Cell growth assay over 14 days. In kind it is cell-based, human. As to the method: (§1) Two gRNA (from the Brunello library, as determined in the MaGeCK count files) with the most significant enrichment or depletion for the genes to be validated, were pooled and nucleofected into H1299-7 Cas9 cells, using the Amaxa 4D nucleofector (Lonza), solution SF and program EW-127 (Lonza, optimised protocol for H1299 cells). Cells were nucleofected with 75 pmol of each gRNA in 20 μl (gRNA from Integrated DNA Technologies, sequences in supplementary Table 2). Efficiency of gene knockout was determined at 72 h post nucleofection through western blot or DNA sequencing. The resulting cell lines were H1299-7 Beta-Arrestin 2 knockout (KO), MVP KO, Artemis KO, and DNA-PK KO.
(§2) For LuTate treatment, aliquots of 4 × 10^6 cells were collected and resuspended in 500 μl DMEM + 1% FCS, and treated with either 0, 5, 10 or 20 MBq/mL LuTate for 4 h in suspension at 37°C and 5% CO2 with mixing every hour. Cells were resuspended in 4 mL full media and plated in 6 well plates at a concentration of 0.5 × 10^6 cells per well. For drug combination experiments, 24 h post LuTate treatment, cells were treated with either 0.5 μM or 1 μM of either AZD-7648 or nedisertib.
(§3) Cell growth was tracked over a 14-day period. Cells were counted and replated at 0.2 × 10^6 cells per well on Days 2, 6 and 9, with a final count on Day 14. Because of the exponential growth or significant lethality of the various cultures, not all cells were necessarily re-seeded at each subculture interval. However, the cell growth assay data is corrected for the fraction of cells re-plated so the data is expressed for all conditions as though all cells were re-plated at each interval (illustrated in Supplementary Figure S1). The total number of cells is thus the theoretical total number of cells over time if all cells at each subculture interval were re-seeded at identical density, calculated by: […]
(§4) Cell growth was normalised to the appropriate control for each experiment. For growth curves showing validation of the CRISPR result, results were graphed showing the alteration in cell population, as compared to control, over time (out to Day 14). For all other assays (combination experiments, and experiments using AR42J or SKNBE-2 cells), results are shown comparing cell population at the Day 14 timepoint. All assays were repeated as at least biological triplicates.

The test system of data set [2] is H1299-7 Beta-Arrestin 2 KO cells. Put plainly: Cell growth assay over 14 days. In kind it is cell-based, human. Here is the method:
as §1, §2, §3, §4

For a further data set, the system named is H1299-7 DNA-PK KO cells. Put plainly: Cell growth assay over 14 days. In kind it is cell-based, human. As to the method:
as §1, §2, §3, §4

For data set [3], the system named is H1299-7 MVP KO cells. The experiment in a line: Cell growth assay over 14 days. As to conditions: 5 MBq/mL LuTate. Format: cell-based, human. Here is the method: as §1, §2, §3, §4
A further data set concerns SKNBE-2 cells. Put plainly: Cell growth assay, Day 14. In kind it is cell-based, human. As to the method:
as §2, §3
Cell growth was normalised to the appropriate control for each experiment. […]

Data set [4] relates to H1299-7 Beta-Arrestin 2 KO cells. Put plainly: LuTate retention assay. Format: cell-based, human. As to conditions: 4 h treatment with 5 MBq/mL LuTate then 24 h in fresh medium, gamma counter, biological triplicates, p-value 0.01 vs control. Here is the method: (§5) H1299-7, H1299-7 Cas9, MVP KO and Beta-Arrestin 2 KO cells were treated with either 0 or 5 MBq/mL LuTate using the same suspension protocol as for the growth experiments. After 4 h of treatment, cells were washed and triplicate aliquots collected for the 4 h timepoint, and the remaining cells plated in triplicate in 6 well plates for 24 h. For collection of samples, cells were spun down, washed twice, and resuspended in 500 μl PBS. All experiments were repeated as biological triplicates. Samples were stored at RT for 2-3 half-lives of LuTate (2-3 weeks), before being counted on the Captus 4000e gamma counter (Capintec). Percent LuTate retained by the cells was calculated as a percent of total activity added and averaged across the triplicate experiments.

The test system of data set [5] is H1299-7 MVP KO cells. The experiment in a line: LuTate retention assay. In kind it is cell-based, human. As to conditions: 5 MBq/mL LuTate for 4 h. As to the method: as §5
Data set [6] has as its system H1299-7 cells. Put plainly: LuTate retention assay. As to conditions: H1299-7 control cells, 4 h treatment with 5 MBq/mL LuTate then 24 h in fresh medium, gamma counter, biological triplicates. In kind it is cell-based, human. Here is the method: as §5
For the next data set, the system named is H1299-7 xenografts. The experiment in a line: H1299-7 xenograft in BALB/c nude mice. Format: in vivo. As to conditions: single agent: 6 MBq LuTate single iv dose, or nedisertib 150 mg/kg oral for 6 days. Here is the method: (§6) All animal experiments were performed with approval from the Peter MacCallum Cancer Centre Animal Experimentation Ethics Committee, and in accordance with the Australian code for the care and use of animals for scientific purposes (8th Edition, 2013). Four- to seven-week-old female BALB/c nude mice were sourced from Animal Resources Centre (Canning Vale, Western Australia). 3 × 10^6 AR42J or 5 × 10^6 H1299-7 cells were subcutaneously implanted onto the right flank of the mice in a 50% Matrigel (Corning):PBS mixture. Mice were weighed, and tumours measured twice weekly using electronic calipers. Tumour volume (mm^3) was calculated as length × width × height × π/6. Once tumours reached a volume of 50-300 mm^3, the animals were randomised into groups of 9-10 mice and injected intravenously with a single dose (5-10 MBq in 100-200 μL) LuTate or vehicle (saline). At 24 h post LuTate injection mice began once-daily oral dosing of DNA-PK inhibitor nedisertib (150 mg/kg) or vehicle (10% DMSO, 40% PEG300, 5% Tween-80, 45% saline) in a volume of 10 ml/kg for 6 consecutive days. Mice were monitored 2-3 times weekly for overall weight as an indicator of murine health and tumour volume measured. Mice were euthanised once the tumour volume exceeded 1200 mm^3.

For the next data set, the system named is AR42J tumours. The experiment in a line: AR42J xenograft in BALB/c nude mice. Format: in vivo, mouse. Here is the method: as §6
The subject of the next data set is unselected tumours. As to conditions: phase I clinical trial, cited from earlier work. An excerpt: To this end, several clinical trials are evaluating the tolerability and efficacy of nedisertib in humans. […] Current clinical trials are focusing on the combination of nedisertib and radiotherapy in the setting of pancreatic cancers (NCT04172532) and glioblastoma and gliosarcoma (NCT04555577), as well as others. Additionally, there are two studies investigating the combination ...

The structures appear in SMILES notation.

Consider `C[C@@H](O)[C@H](NC(=O)[C@@H]1CSSC[C@H](NC(=O)[C@@H](Cc2ccccc2)NC(=O)CN2CCN(CC(=O)[O-])CCN(CC(=O)[O-])CCN(CC(=O)[O-])CC2)C(=O)N[C@@H](Cc2ccc(O)cc2)C(=O)N[C@H](Cc2c[nH]c3ccccc23)C(=O)N[C@@H](CCCCN)C(=O)N[C@@H]([C@@H](C)O)C(=O)N1)C(=O)O.[177Lu+3]` [LuTate, ^177Lutetium-DOTA-octreotate], for which the “survival (expansion of parental cells)” value with H1299-7 cells [1] is listed as less than 0.1%. Moreover, the “times more sensitive to LuTate than control cells” value is listed as 20 times in the data set on H1299-7 Artemis KO cells (5 MBq/mL LuTate, Day 14, p value 0.0021) and 10 times in the data set on H1299-7 DNA-PK KO cells (5 MBq/mL LuTate, Day 14, p value 0.0017). Moreover, the “cell population by Day 14” value with H1299-7 Artemis KO cells (10 MBq/mL LuTate) and in the data set on H1299-7 DNA-PK KO cells (10 MBq/mL LuTate) was “almost completely eradicated” each time. The “relative growth (% of control) at Day 14” value with H1299-7 Artemis KO cells (10 MBq/mL LuTate for 4 h in suspension) is given as 0.0038%; in the data set with H1299-7 Artemis KO cells (20 MBq/mL LuTate for 4 h), 0.000296%. In addition, the “increase in relative growth versus parental H1299-7 cells” value (in data set [2] (5 MBq/mL LuTate); with H1299-7 MVP KO cells [3]) was “two-fold” throughout. Moreover, the “increase in survival versus parental H1299-7 cells” value in [2] (10 MBq/mL LuTate, p-value 0.015) was “four-fold”. In the data set on SKNBE-2 cells (20 MBq/mL LuTate alone, Day 14), the reduction of survival is 50%. Moreover, the “effect on cell survival” value with SKNBE-2 cells (LuTate doses of less than 10 MBq/mL) is “little effect”. Besides, the “LuTate retained (percent of total activity added)” value in data set [4] is 14.5%; in the data set with H1299-7 cells [6], 32%. In addition, in the data set on H1299-7 MVP KO cells [5], the “amount of LuTate retained versus control cells” value is “no alteration”. Besides, the “impact on tumour growth or survival compared to untreated controls” value in the data set with H1299-7 xenografts is given as “no impact”. Besides, in the data set on AR42J tumours (AR42J tumours, 9 MBq LuTate single dose with or without 6 days nedisertib 150 mg/kg, 9-10 mice per group), the “tumour control post the end of treatment” value is 10 days. In the data set with AR42J tumours (AR42J xenograft mice, 9 MBq LuTate with or without nedisertib 150 mg/kg for 6 days, vehicle control 10 days, p-value 0.0001), this compound yielded a median survival of 28 days.
As for `COc1ccc([C@@H](O)c2cc(-c3ncnc4cc(N5CCOCC5)ccc34)c(F)cc2Cl)nn1` [nedisertib], the “impact on tumour growth or survival compared to untreated controls” value in the data set on H1299-7 xenografts is reported as “no impact”. In addition, the efficacy in humans entry with unselected tumours (unselected tumours) is recorded as “modest efficacy”. In addition, the tolerability in humans entry with unselected tumours is given as “well tolerated”.
